Measurements as given in article PMC12040169 (PLOS Biology, 2025).

Assay: in vitro
Conditions: human, hela cells, % viability

SMILES	viability at 28.5 h, 10 µM [%]
c1cncc(-c2ncc(-c3ccco3)c(-c3ccco3)n2)c1 [CBK284503]	93.5
COc1ccc(CC(=O)N2CCCCC2c2ccc(Cc3cccc(F)c3)nc2)cc1 (stereo not drawn) [CBK286493]	90.3
CC(C)C(NC(=O)c1ccc(CS(C)(=O)=O)cc1)c1ccc(C(C)(C)C)cc1 (stereo not drawn) [CBK296705]	102
C=CCn1c(SCC(=O)Nc2ccc(C(=O)OC)cc2)nnc1-c1ccc(Br)cc1 [CBK101797]	92.8
CC(=O)NC(NC(=S)Nc1sc2c(c1C(N)=O)CCCC2)C(Cl)(Cl)Cl (stereo not drawn) [CBK261054]	101
Cn1nccc1NC(=O)Nc1ccc(CN2CCOC2=O)cc1 [CBK306279]	88
Cc1ccc(C2CCCN2C(=O)C(C)Cn2cncn2)cc1C (stereo not drawn) [CBK282213]	98.9
NC(=O)CN1CCC(Oc2cncc(OCC3COc4ccccc4O3)n2)C1 (stereo not drawn) [CBK084372]	98.2
COCCNc1nc(-c2cccc(N(C)C)c2)ccc1C(=O)NCCc1ccccn1 [CBK105938]	90.7
O=C(NCc1nc2ccccc2[nH]1)c1ccc2[nH]ccc2c1 [CBK149079]	89
Cc1cc(NO)nc(-c2ccc(Br)cc2)n1 [CBK261713]	97.6
CC(C)C[C@H]1NC(=O)[C@@H]2C[C@@H](NC(=O)CS(=O)(=O)c3ccccc3)CCN2C1=O [CBK289554]	89.1
COc1ccc(-c2nn(CN3CCC(C(N)=O)CC3)c(=S)n2-c2ccccc2)cc1OC [CBK264299]	91.8
O=C(CSc1nnc(-c2cccnc2)n1-c1ccccc1)Nc1ccc(Br)cc1 [CBK265203]	100
Cc1cc(C)nc(Nc2ncc(O)n2-c2ccccc2C)n1 [CBK263024]	91.2
COCCN1CCCC(NC(C)c2ccc(OC)c(F)c2)C1 (stereo not drawn) [CBK305099]	80.9
CC1(C)CC(=O)c2sc(NC(=O)CN3C(=O)CCC3=O)nc2C1 [CBK287558]	98.2
O=C(O)c1ccccc1-n1c(=O)c2cc3c(=O)n(-c4ccccc4C(=O)O)c(=O)c3cc2c1=O [CBK261097]	87.5
O=C(Nc1c(F)cc(F)cc1OC1CCNCC1)c1ccnc2ccccc12 [CBK050277T]	94.9
CCOC(=O)c1ccccc1NC(=O)CCC(=O)O [CBK261631]	93.5
CCc1cc(O)n2nc(C)c(-c3cccs3)c2n1 [CBK283730]	99.3
OCc1cc(N2CCOC3(CCCOC3)C2)ncc1F (stereo not drawn) [CBK304774]	94.7

SMILES	viability at 28.5 h, 10 µM [%]
c1cc(-c2ccc(OC3CCNCC3)cc2)c2cccnc2c1 [CBK103528T]	92.7
O=C(Cn1nc(N2CCSCC2)ccc1=O)Nc1ccccc1 [CBK307623]	97.2
COc1cncc(-c2cncc(N3CCN(CCN(C)C)CC3)n2)c1 [CBK065393]	120
O=C(Cn1cnc2c(c1=O)CCCC2)Nc1ccc(Cl)c(Cl)c1 [CBK304655]	102
Cc1ccccc1OCCCNCCN1CCOCC1 [CBK268590C]	106
CCNC(=O)C(C)NC(=O)c1cnn(-c2ccc(Br)cc2)c1C (stereo not drawn) [CBK305021]	79.3
Cc1ccc(-c2n[nH]c(=S)n2CCC(=O)N(C)Cc2ccc(N3CCCCC3)cc2)cc1 [CBK297904]	106
COc1cc(C(C)c2cc3c(cc2OCC(=O)O)OCO3)cc(OC)c1OC (stereo not drawn) [CBK200109]	90.5
CC(C)CC(CO)Nc1ncnc2ccc(S(C)(=O)=O)cc12 (stereo not drawn) [CBK304203]	107
N#Cc1ccc2nc([C@H]3CCN(C(=O)C4CCCCC4)C3)[nH]c2c1 [CBK289380]	90
COc1ccc(/C=C(\C)C(=O)Nc2cc3ccccc3c(N3CCNCC3)n2)cc1OC [CBK038937T]	82.1
CCOC(=O)CSc1nnc(-c2ccc(Cl)cc2)o1 [CBK068845]	105
O=C(CSc1nnc(-c2ccc(Cl)cc2)n1-c1ccccc1)N/N=C/c1ccccn1 [CBK263001]	94.6
CN(C)CC(C)(C)CNC(=O)c1ccccc1-n1cccc1 [CBK149600]	92.3
C=CCn1c2cc(C)sc2c2cnn(CC(=O)NC(C)C)c(=O)c21 [CBK284150]	89
NS(=O)(=O)c1ccc(CNC(=O)c2cncc(-c3ccc(C(=O)N4CCOCC4)cc3)c2)cc1 [CBK158641]	100
COc1ccc(CCNc2ncnc3c2cnn3-c2ccc(Cl)cc2)cc1OC [CBK265804]	105
O=C(Oc1ccc2c(c1)C1C=CCC1C(C(=O)O)N2)c1ccc(Cl)cc1Cl (stereo not drawn) [CBK265285]	94.2
CCOc1ccc(OCC)c(S(=O)(=O)n2nc(C)cc2C)c1 [CBK264024]	94.6
C[C@H]1[C@@H]2[C@@H](O)C([C@H](C)C(=O)N3CCCC3)CC[C@@]2(C)CC[C@@H]1NC(=O)c1ccncc1 (stereo partly drawn) [CBK289450]	94.8
COc1ccc(CSc2nc3sc4c(c3c(=O)n2Cc2ccccc2)CCN(Cc2ccccc2)C4)cc1 [CBK263714]	85.1
COc1ccc(S(=O)(=O)N2CCN(C(=O)c3cc(-c4ccncc4)nc4c(C)c(Cl)ccc34)CC2)cc1 [CBK267739]	92.6

SMILES	viability at 28.5 h, 10 µM [%]
Cn1c2c(c(=O)n(C)c1=O)CN(CCN1CCNCC1)CN2 [CBK265218]	104
CNCc1cccc(OC)c1OCc1ccccc1F [CBK269949C]	99.2
CCOc1ccccc1CNc1ccc(C2c3ccsc3CCN2C(=O)COC)cc1 (stereo not drawn) [CBK286461]	88.5
Cc1cc(C)n(CC(C)CNC(=O)Cc2csc(-c3ccco3)n2)n1 (stereo not drawn) [CBK305628]	103
O=C(Nc1ccc2c(c1)OCCO2)N1CCN(c2cc(C(F)(F)F)ccn2)CC1 [CBK162331]	99.4
CC1CCCCN1CC(C)(C)NC(=O)c1cc(C2CC2)on1 (stereo not drawn) [CBK281676]	100
CC(NC1CCCN(c2ccc(C#N)cc2)C1=O)c1cncc(F)c1 (stereo not drawn) [CBK306404]	90.7
O=C(NCc1c(OC(=O)c2cccc([N+](=O)[O-])c2)ccc2ccccc12)c1ccccc1 [CBK260919]	81.1
CN(C)c1cccc2c(S(=O)(=O)n3c(=O)n(CCc4c[nH]c5ccccc45)c4ccccc43)cccc12 [CBK106511]	85.8
O=C(O)CNC(=O)c1ccc(S(=O)(=O)N2CCOCC2)cc1 [CBK267437]	112
c1ccc(C(NCc2cnc(C3CCC3)s2)C2CCCC2)nc1 (stereo not drawn) [CBK304022]	88.6
Cc1cccc(-n2ncc3c(NCCCN4CCOCC4)ncnc32)c1 [CBK265710]	91.2
Cn1c(=O)c2c(ncn2CC(=O)Nc2cccc3ccccc23)n(C)c1=O [CBK133515]	95.8
C=C(C)Cn1c(=O)c2c(nc3[nH]c(C)c(C)n32)n(C)c1=O [CBK288184]	102
CCCn1cc(NC(=O)NC(CC)(CO)c2ccccc2)ccc1=O (stereo not drawn) [CBK305060]	104
c1ccc2c(c1)nc(N1CCNCC1)n1cnnc21 [CBK270145]	100
O=C(NCCc1ccc(S(=O)(=O)NC(=O)NC2CCCCC2)cc1)NC1CCCCC1 [CBK011926]	88.4
Cc1nn(CCC(=O)NC(c2ccccc2)c2cccnc2)c(C)c1C (stereo not drawn) [CBK282547]	86.3
O=C(Nc1cccc(-c2nnn[nH]2)c1)c1ccc(Cl)c(Cl)c1 [CBK144713]	89.3
NNC(=O)/C(=C\c1cccc([N+](=O)[O-])c1)NC(=O)c1ccc(Br)o1 [CBK262573]	107
Nc1cc(Cl)cc2[nH]c(=O)c3cc(Cl)ccc3c12 [CBK017144]	73.3
O=C(NCc1ccc2occc2c1)C1(c2ccccc2)CCCC1 [CBK149525]	116

SMILES	viability at 28.5 h, 10 µM [%]
O=C(CN1C(=O)[C@H]2CCCN2c2ncccc21)NCCc1c[nH]c2ccccc12 [CBK286206]	107
O=c1ccnc(SCc2cccc(Cl)c2)[nH]1 [CBK288123]	100
O=C(Nc1ccc(F)c(F)c1)N[C@H]1CC[C@@]2(c3cccc(Br)c3)CCN(Cc3ccccc3)[C@H]2C1 [CBK047515]	107
CC(c1ccc(F)c(F)c1)N(C)C(=O)Cn1cnc2c(c1=O)CCC2 (stereo not drawn) [CBK306291]	88.6
Fc1ccc(-n2cc(-c3cccnc3)nn2)cc1F [CBK113055]	89.3
Cc1ccc(S(=O)(=O)NC(=O)c2cc(C)n(-c3ccc(N(C)C)cc3)c2C)cc1 [CBK296085]	92.9
CCOc1ccc(NC(=O)C(C)Sc2nc3ccc(F)cc3[nH]2)cc1 (stereo not drawn) [CBK266047]	107
O=C(c1ccco1)c1coc2ccc(O)cc12 [CBK115570]	113
CC(=O)c1sc(=S)n(N(C)C)c1C [CBK006774]	91.6
NC(=O)c1ccccc1NC(=S)NC(=O)c1cc2ccccc2o1 [CBK265633]	81.3
O=C(Nc1cccc(-c2nc3ccccc3s2)c1)c1ccc(Cn2cnnn2)cc1 [CBK285823]	85.2
N#Cc1ccc(CNC(=O)N2CCN(Cc3ccccc3)CC2)cc1 [CBK155637]	90.1
CC(=O)c1ccc(-c2cnc3[nH]c(=O)n(C4CCCCC4)c3n2)s1 [CBK064382]	103
COc1ccc(S(=O)(=O)N2CCN(Cc3cc(OC)c(OC)c(OC)c3)CC2)cc1 [CBK263330]	89.3
CC(=O)C(C)Oc1ncn(-c2ccccc2)n1 (stereo not drawn) [CBK008377]	101
Cc1nc(Nc2cccc(C3CCCN3C(=O)COc3ccc(F)cc3)n2)sc1C (stereo not drawn) [CBK286019]	87
O=C1N=C(NC2CCCCCC2)SC1CC(=O)N1CCCC1 (stereo not drawn) [CBK063342]	95.3
O=C(NCCn1nc(-c2cccs2)oc1=O)C1CCCCC1 [CBK282343]	105
COCCN1C(=O)C2(CC(=O)N(CC3CCCCC3)C2=O)c2ccccc21 (stereo not drawn) [CBK075355]	97.8
COc1cc(-c2cncc(NCc3cccc(Cl)c3)n2)cc(OC)c1OC [CBK065284]	115

Same assay, conditions: human, hela cells, % viability, bulk resorufin, single well

SMILES	viability at 28.5 h, 10 µM [%]
CSc1cc(C)c2c(c1)COC1(CCN(C(=O)NC3CCCCC3)CC1)O2 [CBK060745]	97.4
